Measured values published in patent US9539272B2, “HDAC 6 inhibitor-based methods for treating cancer” (SLOAN-KETTERING INSTITUTE FOR CANCER RESEARCH, priority 2009, dated 2017).
Where “and” joins values, the source holds several entries; their conditions need not be identical. Equal entries are not always repeated. Entries after “also recorded” stand apart in the source; their conditions may differ.

Legend:
[1] = tested on: acetylated α-tubulin and acetylated histone H3 in LNCaP cells; assay: Accumulation of acetylated α-tubulin and acetylated histone H3 in LNCaP cells (Western blot); assay type: cell-based, human; settings: BAHA 1.0 or 1.5 μM, SAHA 1.5 and 2.0 μM
Method: 2×10^6 transformed cells were cultured for 24 hrs in a 10 cm tissue culture dish with 10 ml RPMI 1640 medium. HDAC inhibitors and/or other agents were added in concentrations as indicated for each study to the cultures and cell cultured for times indicated. Cells were harvested by scrapping, washed once with PBS, lyzed with histone extraction buffer (1 ml/10^7 cells), which contains 10 mM MgCl2, 10 mM Tris, 25 mM KCl, 1% Triton X-100, 8.6% sucrose and protease inhibitor cocktail (Roche Diagnostics Gmbh, Indianapolis, Ind.), pH 6.5. Cells were centrifuged at 600 g at 4° C. for 5 mins. The supernatants were saved as cell lyates. The pellets (nuclei) were washed once with TE buffer, suspended in 0.4 NH2SO4 (100 μl/10^7 cells), incubated for 1 hr on ice, and centrifuged at 10,000 g for 10 mins at 4° C. The supernatant was collected, mixed with 1 ml acetone, incubated at −20° C. for more than 1 hr, and centrifuged at 10,000 g for 10 mins at 4° C. The pellets were suspended in water (100 μl/10^7 cells). The protein concentrations were measured with Braford reagent (Bio-Rad, Hercules, Calif.).
1×10^6 cells in a 10 cm diameter cell culture dish were washed with PBS, harvested by trypsinization in 0.05% trypsin for LNCaP and 0.25% trypsin for MCF7, A549, HFS and WI38 resuspended in RIPA at 50 μl for every 1×10^6 cells. Antibodies used were: anti-acetylated tubulin (Sigma), anti-HDAC 6 (Santa Cruz Biotechnology), and anti-tubulin (Calbiochem), (Xu et al. Cancer Research, 65:7832-7839, 2005).

LNCaP cells [2] = assay: Cell growth and viability by trypan blue exclusion, LNCaP
Method: (§1) 5×10^4 cells were seeded per well in a 24-well plate and cultured overnight prior to treating with the compound and/or other agents as indicated for each study. Cells were harvested at 24, 48 and 72 hrs after treatment by trypsin digestion. […] At least three independent analyses were performed for each time point.
(§2) To monitor cell growth and viability, cells were seeded in triplicate at 5×10^4 cells in 1 ml of medium in 24-well plates. The drugs were added at the indicated concentrations 24 h after seeding. Cells were harvested by trypsin digestion at 24 h, 48 h and 72 h following drug additions. Cell number and viability were determined by trypan blue exclusion.

recombinant human HDAC1 = recombinant human HDAC1 (Homo sapiens, UniProt Q13547); assay: In vitro HDAC assay with fluorogenic substrate, HDAC 1
Sequence of recombinant human HDAC1 (Q13547 whole entry): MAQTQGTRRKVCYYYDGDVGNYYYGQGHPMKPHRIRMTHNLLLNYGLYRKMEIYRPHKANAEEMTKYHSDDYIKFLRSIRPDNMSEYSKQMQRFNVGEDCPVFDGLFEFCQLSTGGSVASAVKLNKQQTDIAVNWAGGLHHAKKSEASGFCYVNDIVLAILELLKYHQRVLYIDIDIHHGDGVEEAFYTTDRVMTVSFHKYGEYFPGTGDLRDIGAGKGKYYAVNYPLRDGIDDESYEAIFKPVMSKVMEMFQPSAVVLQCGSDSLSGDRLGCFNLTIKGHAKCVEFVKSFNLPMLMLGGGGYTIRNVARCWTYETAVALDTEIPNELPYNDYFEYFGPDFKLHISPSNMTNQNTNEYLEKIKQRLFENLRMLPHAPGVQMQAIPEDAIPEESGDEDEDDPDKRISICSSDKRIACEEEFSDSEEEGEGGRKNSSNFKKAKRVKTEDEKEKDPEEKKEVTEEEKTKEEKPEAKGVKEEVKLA
Method: Inhibition of HDAC 1 and HDAC 6 were analyzed with a fluorogenic substrate according to manufacture's protocol (HDAC assay reagents were purchased from BPS Biosciences, San Diego, Calif.). 50 μl reaction mixture, which contains 1×HDAC assay buffer, 5 units of recombinant human HDAC1 or HDAC 6, 10 μM substrate 3 and 1 μl inhibitor in DMSO, was incubated at 37° C. for 1 hour. […] The fluorescence intensity was measured at excitation of 360 nm and emission of 460 nm with SpectraMax Gemini XS microplate reader (Molecular Devices, Sunny Calif.).

HFS cells = assay: Cell viability, normal human foreskin cells (HFS); assay type: cell-based; settings: 8 μM tubacin, 5 μM SAHA, alone or together
Method: as §1, §2

LNCaP cells [3] = assay: Microarray analysis of gene expression in LNCaP cells; assay type: cell-based, human; set-up: Total gene number: dose or concentration left out as unconfirmed
Method: Alterations in gene expression were evaluated by microarray using the Illumina human cDNA array containing cDNA probes representing the whole genome (10000 genes). […] Triplicate samples were prepared for each drug treatment at each time point. Poly(A)+ mRNA was isolated from cells using Trizol reagent according to manufacturer's protocol (Invitrogen). The data was analyzed using the Bioconductor packages (www.bioconductor.com) for the R statistical system. The output from Beadstudio was processed using the LUMI package. The normalization method used was quantile and the signal levels were log (base 2) transformed. To determine genes that are differentially expressed between the various sample types, the LIMMA package was used.

[4] = tested on: LNCaP HDAC 6 knockdown cells; assay: Cell viability, LNCaP HDAC 6 knockdown cells; assay type: cell-based, human
Text: shRNA lentiviral particles targeting different regions of HDAC6 mRNA, HDAC6 KD1 (HDAC6 knockdown 1) at 1.7×10^7 TU/ml and HDAC6 KD2 (HDAC6 knockdown 2) at 1.9×10^7 TU/ml, and a non-targeting ‘scramble’ shRNA control particles (#SHC002V) at 1.1×10^7 TU/ml, were purchased from Sigma-Aldrich and transfected according to the manufacturer's instructions using polybrene (Millipore). The 21-nucleotide sequence corresponding to HDAC6 mRNA for HDAC6 KD1 is 5′-[…]-3′ and for HDAC6 KD2 is 5′-[…]-3′. For each shRNA, 5×10^5 cells were infected at an MOT of 2.

MCF-7 cells = assay: Cell growth and viability by trypan blue exclusion, MCF-7; assay type: cell-based, human; settings: MCF-7, 72 hrs; 8 μM tubacin, 5 μM SAHA, […] doxorubicin, 100 μM etoposide, alone or plus 8 μM tubacin
Method: as §1, §2

LNCaP cells [5] = assay: Cell cycle analysis by flow cytometry, LNCaP; assay type: cell-based, human; settings: 24 h, propidium iodide
Method: Cells were harvested at 24 h culture with the indicated drugs, washed with PBS and fixed in methanol. Cells were then resuspended in a buffer containing […] propidium iodide and […] RNase A. Samples were analysed by flow cytometry using a Becton Dickinson FACSCalibur flow cytometer. Data were collected for 10,000 events and analyzed using FlowJo software.

WI38 cells = assay: Cell viability, normal human embryonic fibroblast WI38; assay type: cell-based; settings: 8 μM tubacin, 5 μM SAHA, alone or together
Method: as §1

PARP = PARP cleavage in LNCaP cells (Western blot); settings: 48 h
Method: (§3) 1×10^6 cells were seeded in a 10 cm diameter cell culture dish and cultured overnight prior to addition of the indicated drugs, washed with PBS, harvested by trypsinisation and lysed in RIPA buffer (50 mM Tris-HCL pH8.0, 120 mM NaCl, 0.5 mM EDTA, 0.5% NP-40). […] Quantitation of western blots was performed using ImageJ.

LNCaP cells [6] = assay: Quantitative real-time PCR in LNCaP cells; assay type: cell-based, human; settings: for expression of Mcm4, Mcm6, Cdt1 and Psf2: quantitative real-time PCR
Method: […] of total RNA was reverse-transcribed using the Thermoscript RT-PCR system (Invitrogen) at 52° C. for 1 h. 20 ng of resultant cDNA was used in a Q-PCR reaction using an 7500 Real-Time PCR System (Applied Biosystems) using predesigned primers for DDIT3, DDIT4, Mcm4, Mcm6, Cdt1, Psf2 and GAPDH (Applied Biosystems). Amplification was carried for 40 cycles (95° C. for 15 sec, 60° C. for 1 min). To calculate the efficiency of the PCR reaction, and to assess the sensitivity of each assay, we performed a 6 point standard curve (5, 1.7, 0.56, 0.19, 0.062, and 0.021 ng). Triplicate CT values were averaged, amounts of target were interpolated from the standard curves and normalized to GAPDH (assay Hs99999909_m1).

γH2AX = assay: Accumulation of γH2AX in LNCaP cells (Western blot, ImageJ quantitation); assay type: cell-based, human; settings: 24 h
Method: as §3

phospho-Chk2 = assay: Accumulation of phospho-Chk2 in LNCaP cells (Western blot); assay type: cell-based, human; settings: 24 h
Method: as §3

[7] = tested on: acetylated tubulin and acetylated histone H3 in A549 cells; settings: 24 hrs, tubacin 0.2, 2 or 20 μM; cited from earlier work
[8] = LNCaP, 25 μM or 50 μM SAHA, 72 hrs

CC(C)(C)OC(=O)Nc1ccc(-c2cc(C(=O)NCCCCCCC(=O)NO)no2)cc1 [BAHA]
accumulation of acetylated histone H3 [1]: little or no accumulation
accumulation of acetylated α-tubulin [1]: caused the accumulation
cell death (LNCaP cells [2]; LNCaP, 1 μM BAHA): no cell death
cell growth (LNCaP cells [2]; LNCaP, 1 μM BAHA): moderate inhibition
IC50 (recombinant human HDAC1): 53.7 nM

O=C(CCCCCCC(=O)Nc1ccccc1)NO [SAHA, Suberoylanilide Hydroxamic Acid]
accumulation of acetylated histone H3 [1]: caused an increase in accumulation
accumulation of acetylated α-tubulin [1]: caused an increase in accumulation
cell death (HFS cells): did not cause cell death
cell death (LNCaP cells [2]; LNCaP, 1.25 μM SAHA, alone or plus 1 μM BAHA, 72 hrs): no detectable cell death
cell death (LNCaP cells [2]; LNCaP, 2.5 μM SAHA, alone or plus 1 μM BAHA, 72 hrs): less than 10%
cell death (LNCaP cells [2]; LNCaP, 2.5 μM SAHA, alone or with 8 μM tubacin, 72 hrs): no detectable
cell death (LNCaP cells [2]; LNCaP, 5 μM SAHA, alone or plus 1 μM BAHA, 72 hrs): 65%
cell death (LNCaP cells [2]; LNCaP, 5 μM SAHA, alone or with 8 μM tubacin, 72 hrs): 45%
cell death (LNCaP cells [2]; [8]): 100%
cell growth (LNCaP cells [2]; [8]): growth inhibition
rate of cell growth (LNCaP cells [2]; LNCaP, 2.5, 5 or […] SAHA, alone or plus 8 μM tubacin): markedly decreased
cell death (LNCaP cells [2]; LNCaP, […] SAHA, alone or plus 8 μM tubacin, after 8 hrs): 40%
cell death (LNCaP cells [2]; wild type LNCaP, 2.5 μM SAHA, 72 hrs (knockdown comparison)): no cell death
cell death (LNCaP cells [2]; wild type LNCaP, 5.0 μM SAHA, 72 hrs (knockdown comparison)): 35%
DDIT3 gene expression change (LNCaP cells [3]; 2 h): 2.18 fold
DDIT4 gene expression change (LNCaP cells [3]; 2 h): * (No detectable change of ≧2-fold)
Total gene number (LNCaP cells [3]; 2 h, genes changed ≧2-fold): 37
Downregulated genes (LNCaP cells [3]; 2 h, ≧2-fold): 16
Upregulated genes (LNCaP cells [3]; 2 h, ≧2-fold): 21
DDIT4 gene expression change (LNCaP cells [3]; 8 h): 5.36 fold
Downregulated genes (LNCaP cells [3]; 8 h, ≧2-fold): 302
Total gene number (LNCaP cells [3]; 8 h, ≧2-fold): 628
Upregulated genes (LNCaP cells [3]; 8 h, ≧2-fold): 326
DDIT4 gene expression change (LNCaP cells [3]; 24 h): 3.81 fold
Downregulated genes (LNCaP cells [3]; 24 h, ≧2-fold): 989
Total gene number (LNCaP cells [3]; 24 h, ≧2-fold): 1951
Upregulated genes (LNCaP cells [3]; 24 h, ≧2-fold): 962
cell death ([4]; LNCaP HDAC 6 knockdown, 2.5 μM SAHA, 72 hrs): 25%
cell death ([4]; LNCaP HDAC 6 knockdown, 5.0 μM SAHA, 72 hrs): 80%
cell death (MCF-7 cells): 40%
rate of cell growth (MCF-7 cells): markedly decreased
cell cycle distribution (LNCaP cells [5]): increase in both G1 and G2 arrested cells
cell death (WI38 cells): did not cause cell death
PARP cleavage (PARP; 2.5 mM SAHA): did not result in PARE cleavage
PARP cleavage (PARP; 5 mM SAHA): resulted in PARP cleavage
expression of Mcm4, Mcm6, Cdt1 and Psf2 (LNCaP cells [6]): downregulated
accumulation of γH2AX (γH2AX): increased
level of phospho-Chk2 (phospho-Chk2): increase of phospho-Chk2

CC(/C=C/C(=O)NO)=C\[C@@H](C)C(=O)c1ccc(N(C)C)cc1 [Trichostatin A]
accumulation of acetylated histone H3 [7]: caused the accumulation
accumulation of acetylated tubulin [7]: caused the accumulation

COc1cccc2c1C(=O)c1c(O)c3c(c(O)c1C2=O)C[C@@](O)(C(=O)CO)C[C@@H]3O[C@H]1C[C@H](N)[C@H](O)[C@H](C)O1 [doxorubicin]
cell death (LNCaP cells [2]; LNCaP, 5 nM doxorubicin, alone or plus 8 μM tubacin, 48 hrs): 40%
rate of cell growth (LNCaP cells [2]; LNCaP, 10 nM doxorubicin, alone or plus 8 μM tubacin): decreased
cell death (LNCaP cells [2]; LNCaP, […] doxorubicin, alone or plus 8 μM tubacin, 48 hrs): 80%
cell death (LNCaP cells [2]; wild type LNCaP, 10 nM doxorubicin, 72 hrs): 45%
cell death (LNCaP cells [2]; wild type LNCaP, 100 nM doxorubicin, 72 hrs): 75%
cell death (LNCaP cells [2]; wild type LNCaP, 500 nM doxorubicin, 72 hrs): 85%
cell death ([4]; LNCaP HDAC 6 knock down, 10 nM doxorubicin, 72 hrs): 85%
cell death ([4]; LNCaP HDAC 6 knock down, 100 nM doxorubicin, 72 hrs): 90%
cell death ([4]; LNCaP HDAC 6 knock down, 500 nM doxorubicin, 72 hrs): 95%
cell death (MCF-7 cells): 25%
rate of cell growth (MCF-7 cells): markedly decreased

COc1cc([C@@H]2c3cc4c(cc3[C@@H](O[C@@H]3O[C@@H]5CO[C@@H](C)O[C@H]5[C@H](O)[C@H]3O)[C@H]3COC(=O)[C@H]23)OCO4)cc(OC)c1O [etoposide]
cell death (LNCaP cells [2]; LNCaP, 50 μM etoposide, alone or plus 8 μM tubacin, 72 hrs): 50%
cell death (LNCaP cells [2]; LNCaP, 100 μM etoposide, alone or plus 8 μM tubacin, 72 hrs): 80%
cell death (LNCaP cells [2]; wild type LNCaP, 10 μM etoposide, 48 hrs): 10%
cell death (LNCaP cells [2]; wild type LNCaP, 50 μM etoposide, 48 hrs): 30%
cell death (LNCaP cells [2]; wild type LNCaP, 100 μM etoposide, 48 hrs): 40%
cell death ([4]; LNCaP HDAC 6 knockdown, 10 μM etoposide, 48 hrs): 20%
cell death ([4]; LNCaP HDAC 6 knockdown, 50 μM etoposide, 48 hrs): 35%
cell death ([4]; LNCaP HDAC 6 knockdown, 100 μM etoposide, 48 hrs): 55%
cell death (MCF-7 cells): 30%
rate of cell growth (MCF-7 cells): markedly decreased
cell cycle distribution (LNCaP cells [5]): small increase in cells in G1
expression of Mcm4, Mcm6, Cdt1 and Psf2 (LNCaP cells [6]): downregulated

O=C(CCCCCCC(=O)Nc1ccc([C@H]2O[C@@H](CSc3nc(-c4ccccc4)c(-c4ccccc4)o3)C[C@@H](c3ccc(CO)cc3)O2)cc1)NO [tubacin]
cell death (HFS cells): did not cause cell death
cell death (LNCaP cells [2]; LNCaP, tubacin alone (8 μM), up to 72 hrs): did not cause cell death; also recorded: did not induce LNCaP cell death
DDIT3 gene expression change (LNCaP cells [3]; 2 h): * (No detectable change of ≧2-fold)
Total gene number (LNCaP cells [3]; 2 h, genes changed ≧2-fold): 1
Downregulated genes (LNCaP cells [3]; 2 h, ≧2-fold): 0
Upregulated genes (LNCaP cells [3]; 2 h, ≧2-fold): 1
DDIT4 gene expression change (LNCaP cells [3]; 8 h): 5.54 fold
Downregulated genes (LNCaP cells [3]; 8 h, ≧2-fold): 1
Total gene number (LNCaP cells [3]; 8 h, ≧2-fold): 7
Upregulated genes (LNCaP cells [3]; 8 h, ≧2-fold): 6
DDIT3 gene expression change (LNCaP cells [3]; 24 h): 7 fold and 7.04 fold
DDIT4 gene expression change (LNCaP cells [3]; 24 h): 6.8 fold
Downregulated genes (LNCaP cells [3]; 24 h, ≧2-fold): 72
Total gene number (LNCaP cells [3]; 24 h, ≧2-fold): 225
Upregulated genes (LNCaP cells [3]; 24 h, ≧2-fold): 153
accumulation of acetylated histone H3 [7]: but not acetylated histone H3
accumulation of acetylated tubulin [7]: caused an accumulation
cell death (MCF-7 cells): did not induce MCF-7 cell death
rate of cell growth (MCF-7 cells): somewhat decreased
cell cycle distribution (LNCaP cells [5]): increase in G1 arrest
cell death (WI38 cells): did not cause cell death
DDIT4 expression by quantitative real-time PCR (LNCaP cells [6]): upregulation
expression of Mcm4, Mcm6, Cdt1 and Psf2 (LNCaP cells [6]): downregulated
accumulation of γH2AX (γH2AX): increased
IC50 (recombinant human HDAC1): 82 nM
